Measurements published in publication PMC8819907 (Journal of Experimental & Clinical Cancer Research : CR, 2022).
Several values for one entry are separate records, joined by “and”; a condition that tells them apart may be missing. Equal values may be shown once. Read-outs that look alike come from different tables or passages of the source.

Experiments:
advanced solid tumors = assay: Tumor response (RECIST 1.1) and PFS (Kaplan Meier); type: in vivo, human;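 further: patients were grouped by hepatic function into four groups, and PFS differences among these groups were tested with a log rank test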
[1] = trametinib and its metabolites; cited from earlier work
[2] = test system: RAF-mediated MEK1 activation; parameters: method as in ref 19 (a number printed in a supplementary file, which may have a reference list of its own: not looked up in the article's list); conditions: read-out: IC50, inhibition of RAF-mediated MEK1 activation; cited from earlier work
[3] = test system: panel of 183 kinases, including MEK5, CRAF, BRAF, ERK1, and ERK2; parameters: method as in ref 18 (a number printed in a supplementary file, which may have a reference list of its own: not looked up in the article's list); conditions: cited from earlier work
pERK = test system: pERK; parameters: method as in ref 17 (a number printed in a supplementary file, which may have a reference list of its own: not looked up in the article's list); conditions: cited from earlier work
[4] = parameters: method as in ref 17 (a number printed in a supplementary file, which may have a reference list of its own: not looked up in the article's list); conditions: cited from earlier work
[5] = test system: patients with solid tumors or lymphoma; parameters: method as in ref 20 (a number printed in a supplementary file, which may have a reference list of its own: not looked up in the article's list); conditions: cited from earlier work
pERK, Ki67, and p27 = test system: pERK, Ki67, and p27; parameters: method as in ref 19 (a number printed in a supplementary file, which may have a reference list of its own: not looked up in the article's list); conditions: 2 mg QD, cited from earlier work
[6] = test system: melanoma, pancreatic cancer, CRC; conditions: cited from earlier work
KRAS-mutant NSCLC = test system: KRAS-mutant NSCLC; parameters: method as in ref 24 (a number printed in a supplementary file, which may have a reference list of its own: not looked up in the article's list); conditions: cited from earlier work
[7] = cited from earlier work
[8] = cited from earlier work; remark: listed apart in the source
[9] = 25° C; cited from earlier work
[10] = test system: CYP enzymes; BCRP, MRP2, OATP1B1, OATP1B3, OATP2B1, OCT1, MATE1, P-gp, BSEP; conditions: cited from earlier work
[11] = test system: MRP2, BSEP, P-gp, BCRP, OATP1B1, OATP1B3, OAT1, OAT3, OCT2, MATE1; conditions: cited from earlier work
[12] = test system: patients with advanced melanoma; conditions: cited from earlier work
[13] = test system: patients in clinical trials of trametinib; conditions: cited from earlier work
[14] = 2 mg monotherapy, 96 total patients

Structure (SMILES): CC(=O)Nc1cccc(-n2c(=O)n(C3CC3)c(=O)c3c(Nc4ccc(I)cc4F)n(C)c(=O)c(C)c32)c1 [Trametinib, equimolecular combination of acetamide, N-[3-[3-cyclopropyl-5-[(2-fluoro-4-iodophenyl)amino]-3,4,6,7-tetrahydro6,8-dimethyl-2,4,7-trioxopyrido[4,3-d]pyrimidin-1(2H)-yl]phenyl] with 1,1’-sulfinylbis[methane]]
- duration of SD (range) (advanced solid tumors; Mild): 3.0-6.6 months
- median duration of SD (advanced solid tumors; Mild): 4.8 months
- Best Response: Partial Response (advanced solid tumors; Mild DL1 2 mg): 0 (0) n (%)
- Best Response: Progressive Disease (advanced solid tumors; Mild DL1 2 mg): 4 (66.7) n (%)
- Best Response: Stable Disease (advanced solid tumors; Mild DL1 2 mg): 2 (33.3) n (%)
- Best Response: Stable Disease (advanced solid tumors; Mild DL1 2 mg, listed as trametinib): 2 (33.3%) n (%)
- median PFS (advanced solid tumors; Mild group): 1.74 months
- duration of SD (range) (advanced solid tumors; Mod (1.5 mg)): 3.0-3.5 months
- median duration of SD (advanced solid tumors; Mod (1.5 mg)): 3.5 months
- duration of SD (range) (advanced solid tumors; Mod (2 mg)): 2.3-2.4 months
- median duration of SD (advanced solid tumors; Mod (2 mg)): 2.4 months
- Best Response: Partial Response (advanced solid tumors; Mod DL1 1.5 mg): 0 (0) n (%)
- Best Response: Progressive Disease (advanced solid tumors; Mod DL1 1.5 mg): 1 (25.0) n (%)
- Best Response: Stable Disease (advanced solid tumors; Mod DL1 1.5 mg): 3 (75.0) n (%)
- Best Response: Stable Disease (advanced solid tumors; Mod DL1 1.5 mg, listed as trametinib): 3 (75%) n (%)
- Best Response: Partial Response (advanced solid tumors; Mod DL+1 2 mg): 0 (0) n (%)
- Best Response: Progressive Disease (advanced solid tumors; Mod DL+1 2 mg): 1 (33.3) n (%)
- Best Response: Stable Disease (advanced solid tumors; Mod DL+1 2 mg): 2 (66.7) n (%)
- Best Response: Stable Disease (advanced solid tumors; Mod DL+1 2 mg, listed as trametinib): 2 (66%) n (%)
- median PFS (advanced solid tumors; Mod group): 3.45 months
- duration of SD (range) (advanced solid tumors; Norm): 1.9-12.5 months
- median duration of SD (advanced solid tumors; Norm): 3.8 months
- Best Response: Partial Response (advanced solid tumors; Norm 2 mg): 2 (15.4) n (%)
- Best Response: Progressive Disease (advanced solid tumors; Norm 2 mg): 4 (30.8) n (%)
- Best Response: Stable Disease (advanced solid tumors; Norm 2 mg): 7 (53.8) n (%)
- Best Response: Stable Disease (advanced solid tumors; Norm 2 mg, listed as trametinib): 7 (53.8%) n (%)
- median PFS (advanced solid tumors; Norm group): 3.62 months
- duration of SD (range) (advanced solid tumors; Sev (1 mg)): 2.7-4.6 months
- median duration of SD (advanced solid tumors; Sev (1 mg)): 3.4 months
- Best Response: Partial Response (advanced solid tumors; Sev DL1 1 mg): 0 (0) n (%)
- Best Response: Progressive Disease (advanced solid tumors; Sev DL1 1 mg): 1 (25.0) n (%)
- Best Response: Stable Disease (advanced solid tumors; Sev DL1 1 mg): 3 (75.0) n (%)
- Best Response: Stable Disease (advanced solid tumors; Sev DL1 1 mg, listed as trametinib): 3 (75%) n (%)
- Best Response: Partial Response (advanced solid tumors; Sev DL+1 1.5 mg): 0 (0) n (%)
- Best Response: Progressive Disease (advanced solid tumors; Sev DL+1 1.5 mg): 1 (100%) n (%)
- Best Response: Stable Disease (advanced solid tumors; Sev DL+1 1.5 mg): 0 (0) n (%)
- Best Response: Stable Disease (advanced solid tumors; Sev DL+1 1.5 mg, listed as trametinib): 0 (0%) n (%)
- median PFS (advanced solid tumors; Sev group): 2.11 months
- Best Response: Partial Response (advanced solid tumors; Total): 2
- Best Response: Progressive Disease (advanced solid tumors; Total): 12
- Best Response: Stable Disease (advanced solid tumors; Total): 17
- excreted in the feces [1]: ≥ 81%
- excreted in urine [1]: ≤ 19%
- IC50 [2]: 0.6 nM
- specificity against a panel of 183 kinases [3]: specificity of trametinib was confirmed
- duration of pERK inhibition (pERK; after the Day 7 dose): over 24 hours
- duration of pERK reduction (pERK; first dose 3 mg/kg, Day 1): more than 8 hours
- Cmax ([4]; Day 7, 3 mg/kg, read-out: average Cmax in blood): 1410 nM
- estimated half-life (t1/2) ([4]; mice): 33 h
- MTD [5]: 3 mg QD
- recommended phase 2 dose (RP2D) [5]: 2 mg QD
- median inhibition of pERK (pERK, Ki67, and p27; BRAF or NRAS mutation-positive metastatic melanoma): 62%
- median increase in p27 (pERK, Ki67, and p27): 175%
- median inhibition of Ki67 (pERK, Ki67, and p27): 83%
- partial response (PR) ([6]; 9 patients with BRAF wt melanoma): 2 patients
- overall objective response rate (ORR) ([6]; 14 patients with BRAF-mutant melanoma, 2 mg QD): 43%
- complete responses (CRs) ([6]; 14 patients with BRAF-mutant melanoma): 2
- PRs ([6]; 26 evaluable pancreatic cancer patients): 2
- objective responses ([6]; 28 patients with colorectal cancer): no objective responses
- median PFS (KRAS-mutant NSCLC): 11.7 weeks
- overall response rate (ORR) (KRAS-mutant NSCLC): 12%
- terminal half-life ([7]; after single dose administration): 127 h
- volume of distribution (Vd) ([7]; following an IV microdose): 1060 L
- plasma IV clearance ([7]; human, in vivo, iv): 3.21 L/h
- plasma IV clearance as share of liver blood flow ([7]; human, in vivo, iv): approximately 1%
- half-life ([7]; patients with normal liver function): approximately 4 days
- absolute oral bioavailability ([7]; single 2 mg tablet relative to co-administered IV microdose): 72%
- decrease in AUC(0-∞) with a high-fat, high-calorie meal ([7]; single dose, vs fasted): 10%
- decrease in Cmax with a high-fat, high-calorie meal ([7]; single dose, vs fasted): 70%
- fecal excretion, of the radioactive dose ([8]; 2 subjects): 39.2% and 35.0%
- fecal excretion, of excreted radioactivity recovered ([8]; oral dose): > 80%
- urinary excretion, of excreted radioactivity recovered ([8]; oral dose): < 19%
- urinary excretion, of the radioactive dose ([8]; oral dose): < 10%
- Approximate Solubility in water [9]: < 0.1 µg/mL
- permeability [10]: high permeability
- substrate of CYP enzymes ([10]; in vitro): not a substrate
- substrate of human BCRP, MRP2, OATP1B1, OATP1B3, OATP2B1, OCT1 or MATE1 transporters ([10]; in vitro): not a substrate
- substrate for P-gp and BSEP ([10]; not expected to be clinically relevant): substrate
- inhibitor of P-gp, BCRP, OATP1B1, OATP1B3, OAT1, OAT3, OCT2 and MATE1 ([11]; at systemic concentrations that are not clinically relevant): in vitro inhibitor
- inhibitor of MRP2 or BSEP [11]: not an inhibitor
- Cardiomyopathy resolved ([12]; 10 of 14 patients): 71%
- Pruritis ([12]; All Grades): 10%
- Stomatitis ([12]; All Grades): 15%
- Pruritis ([12]; Grades 3 and 4): 2%
- Stomatitis ([12]; Grades 3 and 4): 2%
- Dose reduction required for skin toxicities ([12]; in vivo): 12%
- Severe skin toxicity ([12]; in vivo): 12%
- overall incidence of skin toxicity ([12]; in vivo): 87%
- permanent discontinuation for skin toxicities ([12]; in vivo): 1%
- median time to onset of skin toxicity ([12]; range: 1 to 221 days): 15 days
- median time to resolution of skin toxicity ([12]; range: 1 to 282 days): 48 days
- grade 4 rash AE ([13]; 2 mg monotherapy, five studies): four patients
- LFT changes grade 3 events [13, 14]: 26
- LFT changes grade 4 events [13, 14]: 6 patients
- grade 1 or 2 pneumonitis ([13]; 2 mg monotherapy): three subjects
- grade 3 diarrhea ([13]; 2 mg monotherapy): 17 patients
- grade 3 pneumonitis ([13]; 2 mg monotherapy): six
- grade 3 visual disorders ([13]; 2 mg monotherapy): six patients
- grade 4 diarrhea ([13]; 2 mg monotherapy): none
- grade 4 visual disorder ([13]; 2 mg monotherapy): one patient
- cases of RPED ([13]; entire trametinib program as of 23 June 2013, monotherapy or combination): 14 cases
- cases of RPED ([13]; integrated safety population, 2 mg once daily, five studies): five cases
